# System: Candida albicans FP-633
# Assay type: cell-based
# Details: FP-633, 24 h, pH 7.3
# Protocol: In vitro antimicrobial activity of the object compound of Examples 1, 2, 3 and 4 disclosed later was determined by MICS in mouse serum as described below. The MICS in mouse serum were determined by the microdilution method using ICR mouse serum buffered with 20 mM HEPES buffer (pH 7.3) as a test medium. Inoculum suspension of 10^6 cells/ml were prepared by a hemocytometric procedure and diluted to obtain an inoculum size of approximately 1.0×10^3 cells/ml. Microplates were incubated at 37° C. for 24 hours in 5% CO2. The MICS were defined as the lowest concentrations at which no visible growth was observed.
row,Compound,MIC [µg/mL]
1,COc1cc(C[C@@H](O)[C@@H]2NC(=O)[C@@H]3C[C@@H](O)CN3C(=O)[C@H]([C@@H](C)O)NC(=O)[C@@H](NCc3ccc(-c4nnc(-c5ccc(N6CCN(C7CCCCC7)CC6)cc5)s4)cc3)C[C@@H](O)CNC(=O)[C@@H]3[C@@H](O)[C@@H](C)CN3C(=O)[C@H]([C@H](O)CCNC(CO)CO)NC2=O)ccc1O [Example 4],<0.15
2,COc1cc(C[C@@H](O)[C@@H]2NC(=O)[C@@H]3C[C@@H](O)CN3C(=O)[C@H]([C@@H](C)O)NC(=O)[C@@H](NCc3ccc(-c4ccc(N5CCN([C@H]6CC[C@](OC)(C7CCCCC7)CC6)CC5)cc4)cc3)C[C@@H](O)CNC(=O)[C@@H]3[C@@H](O)[C@@H](C)CN3C(=O)[C@H]([C@H](O)CCN)NC2=O)ccc1O [Example 2],<0.15
3,COc1cc(C[C@@H](O)[C@@H]2NC(=O)[C@@H]3C[C@@H](O)CN3C(=O)[C@H]([C@@H](C)O)NC(=O)[C@@H](NCc3ccc(-c4nnc(-c5ccc(N6CCC(OC)(C7CCCCC7)CC6)cc5)s4)cc3)C[C@@H](O)CNC(=O)[C@@H]3[C@@H](O)[C@@H](C)CN3C(=O)[C@H]([C@H](O)CCNC(CO)CO)NC2=O)ccc1O [Example 3],<0.15
4,COc1cc(C[C@@H](O)[C@@H]2NC(=O)[C@@H]3C[C@@H](O)CN3C(=O)[C@H]([C@@H](C)O)NC(=O)[C@@H](NCc3ccc(-c4nnc(-c5ccc(N6CCN([C@H]7CC[C@@H](C)CC7)CC6)cc5)s4)cc3)C[C@@H](O)CNC(=O)[C@@H]3[C@@H](O)[C@@H](C)CN3C(=O)[C@H]([C@H](O)CCN)NC2=O)ccc1O [Example 1],<0.15
